Data: ChEMBL document CHEMBL1148150, “New cytotoxic furanosesterterpenes from an Okinawan marine sponge, Ircinia sp” (J Nat Prod, 2003)

Test system: KB
Test: Cytotoxicity against human KB cells
Format: functional, cell-based

`CCC(O)C(=O)C[C@@H](C)CCC/C(C)=C\C=C\[C@]1(C)CCCc2ccoc21` (stereo not given in full) was tested, and the IC50 was less than 1 µg/mL.

`C/C(=C/C=C/[C@]1(C)CCCc2ccoc21)CCC[C@H](C)CC(=O)[C@@H](O)[C@H](C)Cl` showed an IC50 of less than 1 µg/mL.

Molecule `CC1=C(O)/C(=C/[C@@H](C)CCC/C(C)=C/C=C/[C@]2(C)CCCc3ccoc32)OC1=O` has an IC50 of no less than 1 µg/mL.

Work on `CC1=C(O)/C(=C/[C@@H](C)CCC/C(C)=C\C=C\[C@]2(C)CCCc3ccoc32)OC1=O` yielded an IC50 of no less than 1 µg/mL.

`C/C(=C/C=C/[C@]1(C)CCCc2ccoc21)CCC[C@H](C)CC(=O)[C@H](O)[C@H](C)Cl` was tested, and the IC50 was less than 1 µg/mL.
